This is an account of results in patent US20180057505A1, “BICYCLIC HETEROARYL COMPOUNDS USEFUL AS INHIBITORS OF THE PAR-2 SIGNALING PATHWAY” (VERTEX PHARMACEUTICALS INCORPORATED, priority 2015, published 2018).

The % inhibition is the change of the read-out against control, counted positive when it falls. Read a high % inhibition as a strong effect. For orientation: IC50 means the concentration needed to halve the response being measured.

Series [1] is described as follows: In vivo rat pharmacokinetics experiments. The note with it: for F: oral gavage, dose 1 to 600 mg/kg. How it is done: Example 99: Protocol for Testing PAR2 Compounds In Vivo Rat Pharmacokinetics Experiments
Compounds delivered by intravenous route were formulated using a solution formulation consisting of 5% N-methylpyrrolidone 10% Vitamin E-TPGS and 85% water (v/v/) or a solution formulation consisting of 25% N-methylpyrrolidone 35% polyethylene glycol 400 and 40% water (v/v/). Intravenous formulations were administered by a bolus injection (over approximately 10 seconds) using a hypodermic needle attaches to a syringe (tail vein). The dose volume was varied from 1 to 2 mL/kg and the dose was varied from 0.5 to 1 mg/kg. Compounds delivered orally were formulated as a solution formulation consisting of 5% N-methylpyrrolidone 10% Vitamin E-TPGS and 85% water (v/v/) or as fine suspension using a cellulose derivative suspending agent with or without the addition of a wetting agent/surfactant. Milling of large particles was performed as needed to reduce particle size using focused electroacoustic milling, homogenization or low energy media milling. A spray-dried solid dispersion was prepared for key compounds using 1:1 combination with cellulose derivatives. Test compounds were administered orally by gavage using a gavage plastic needle attached to a syringe. The dose volume was varied from 5 to 10 mL/kg and the dose was varied from 1 to 600 mg/kg.
Rats were bled by venipuncture (jugular vein) and the samples were collected into tubes containing K3EDTA. The tubes were placed on wet ice until processed. The samples were centrifuged for approximately 10 minutes (at approximately 4° C.) within approximately 30 minutes of collection to prepare plasma or diluted in citrate buffer (1:3) and stored frozen (approximately −30° C.). Thawed plasma or whole blood samples were extracted by protein precipitation using an organic solvent followed by centrifugation. The supernatants were separated by high-performance liquid chromatography coupled to mass spectrometry detection. A calibration curve was prepared using reference standard compounds spiked into either blank plasma or whole blood matrices and extracted similarly to unknown samples. Pharmacokinetic parameters were calculated using non-compartmental analysis.

In series [2] the test system is carrageenan induced paw edema. Kind of series: Rat carrageenan-induced paw edema model. It is filed as in vivo. Conditions: given 0.5-3 hour before carrageenan. The protocol:
Example 100: In Vivo Pharmacological Evaluation of PAR2 Pathway Inhibitors Subjects and Housing and Rat Carrageenan-Induced Paw Edema Model Male Sprague Dawley rats were housed in groups in a temperature controlled room and were acclimatized in the animal facility for at least three days prior to use. Experiments were performed during the light phase of the cycle. Animals have food and water ad libitum. Peripheral inflammation was induced by intra-plantar administration of 100 ul of a 1% w/volume (in saline) carrageenan solution under isoflurane anesthesia. The degree of swelling was assessed using the plethysmometer at 2-3-4-5-6 h after carrageenan injection. Test compound or vehicle (0.5% MC/0.1% SDS) was systemically administered at the indicated doses in a volume of 5 mL/kg either 0.5-3 hour before carrageenan challenge (Table 4).
(Carrageenan injected into the paw causes an acute inflammation.)

For series [3], the system named is Thrombin-stimulated Ca2+ response in HT-29 cells. The series is described as follows: Ca FLIPR TETRA assay, ANTAGONIST mode, activator 1 U/mL Thrombin. It is filed as cell-based. The note with it: Homo sapiens; HT-29 cells, activator 1 U/mL Thrombin. The method, boiled down: (§1)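 Antagonist mode, HT-29: cells O/N 37 °C, 1% FBS; calcium 5 dye 45 min 37 °C + 15 min RT; cpd (DMSO, HBSS-diluted) 30 min RT; activator at final conc. (8 μM SLIGKV / 1 U/mL thrombin / 3.1 U/mL trypsin / 0.6 μM UTP); FLIPR Tetra Ca2+ read.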

The subject of series [4] is UTP-stimulated Ca2+ response in HT-29 cells. Kind of series: Ca FLIPR TETRA assay, ANTAGONIST mode, activator 0.6 μM UTP. Type of series: cell-based. The note with it: Homo sapiens; HT-29 cells, activator 0.6 μM UTP. In outline:
as §1

Series [5] concerns the target T1, PAR2 (HT-29 cells) (Homo sapiens, UniProt P55085).
T1 construct: host or cells: HT-29
T1 sequence (P55085 26-397): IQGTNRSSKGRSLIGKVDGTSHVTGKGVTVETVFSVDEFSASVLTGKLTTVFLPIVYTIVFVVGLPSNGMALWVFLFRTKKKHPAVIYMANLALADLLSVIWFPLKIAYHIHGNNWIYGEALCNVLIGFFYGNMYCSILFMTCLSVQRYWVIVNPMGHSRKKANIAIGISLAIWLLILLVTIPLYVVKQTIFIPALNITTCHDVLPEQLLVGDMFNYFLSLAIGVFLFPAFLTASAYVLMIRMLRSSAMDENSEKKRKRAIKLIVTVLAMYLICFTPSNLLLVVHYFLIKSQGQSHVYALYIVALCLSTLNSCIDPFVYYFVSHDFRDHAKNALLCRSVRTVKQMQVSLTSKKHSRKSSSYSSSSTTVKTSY
The series is described as follows: Ca FLIPR TETRA assay, ANTAGONIST mode, activator 8 μM SLIGKV. It is filed as cell-based. The note with it: HT-29 cells; activator 8 μM SLIGKV; Method A: maximal concentration of antagonist 0.1, 1 or 2 μM. The method, boiled down:
as §1

Series [6] addresses T1, PAR2 (HT-29 cells). The series is described as follows: Ca FLIPR TETRA assay, ANTAGONIST mode, activator 3.1 U/mL trypsin. Type of series: cell-based. Conditions: HT-29 cells; activator 3.1 U/mL trypsin; Method A: maximal concentration of antagonist 0.1, 1 or 2 μM. In outline:
as §1

[7] abbreviates: intravenous bolus 0.5 to 1 mg/kg, non-compartmental analysis.

In the case of `CC(C)(C)c1cc(-c2ccc(Cl)c(F)c2)nc2cc(C(=O)N3CCN(c4ccc(C(=O)O)cn4)CC3(C)C)oc12` [Compound I-287], the Clp in series [1] (setting [7]) was 5.2 mL/min/kg. Besides, in series [1] (non-compartmental analysis), the “T ½” value was 3.7 h. The F in series [1] is 58%. Further, the “% inhibition” value in series [2] (dose 200 mg/kg) came to 30%.
For the compound `CC1(C)CCC(c2cc(C(C)(C)C)c3oc(C(=O)N4CCN(C(=O)[C@H]5CC[C@@](C)(C(=O)O)CC5)CC4(C)C)cc3n2)CC1` [Compound I-316], in series [1] (setting [7]), the Clp turned out to be 13.9 mL/min/kg. Besides, the “T ½” value in series [1] (non-compartmental analysis) is listed as 1.0 h. For the same compound, the F in series [1] came out at 49%. Besides, the “% inhibition” value in series [2] (dose 5 mg/kg) was found to be 25%; in series [2] (dose 20 mg/kg), 38%.
Regarding `CC(C)(C)c1cc(-c2ccc(Cl)c(F)c2)nc2cc(C(=O)N3CCN(C(=O)CC4(C(=O)O)CCCC4)CC3(C)C)oc12` [Compound I-324], the Clp in series [1] (setting [7]) is 21.3 mL/min/kg. The “T ½” value in series [1] (non-compartmental analysis) amounted to 0.47 h. The F in series [1] stood at 19%. The “% inhibition” value in series [2] (dose 20 mg/kg) came out at 71%.
As to `CC(C)(C)c1cc(-c2ccc(Cl)c(F)c2)nc2cc(C(=O)N3CCN(c4ncc(-c5nnn[nH]5)cn4)CC3(C)C)oc12` [Compound I-331], in series [1] (setting [7]), the Clp was found to be 8.9 mL/min/kg. Also, the “T ½” value in series [1] (non-compartmental analysis) turned out to be 1.6 h. In series [2] (dose 20 mg/kg), the “% inhibition” value was 27%.
The corresponding values for `CC1(C)CCC(c2cc(C(C)(C)C)c3oc(C(=O)N4CCN(C(=O)CC5(C(=O)O)CCC5)CC4(C)C)cc3n2)CC1` [Compound I-338] are 33 mL/min/kg, 0.5 h and 0%.
Consider `CC(C)[C@H](CC(=O)N1CCN(C(=O)c2cc3nc(-c4ccc(Cl)c(F)c4)cc(C(C)(C)C)c3o2)C(C)(C)C1)C(=O)O` [Compound I-343], for which, in series [1] (setting [7]), the Clp was found to be 53 mL/min/kg. Moreover, in series [1] (non-compartmental analysis), the “T ½” value was 0.33 h. Also, in series [1], the F stood at 27%. Further, the “% inhibition” value in series [2] (dose 20 mg/kg) stood at 29%.
The corresponding values for `CC(C)(C)c1cc(-c2ccc(Cl)c(F)c2)nc2cc(C(=O)N3CCN(c4cccc(-c5nnn[nH]5)n4)CC3(C)C)oc12` [Compound I-344] are 10.2 mL/min/kg, 0.99 h, 24% and 43%.
As for `CC1(C)CCC(c2cc(C(C)(C)C)c3oc(C(=O)N4CCN(c5cccc(-c6nnn[nH]6)n5)CC4(C)C)cc3n2)CC1` [Compound I-345], the Clp in series [1] (setting [7]) is reported as 7.6 mL/min/kg. The “T ½” value in series [1] (non-compartmental analysis) is 1.8 h. Also, the F in series [1] was found to be 52%. Further, in series [2] (dose 15 mg/kg), the “% inhibition” value is 28%.
As for `CC1(C)CCC(c2cc(C(C)(C)C)c3oc(C(=O)N4CCN(c5ncc(-c6nnn[nH]6)cn5)CC4(C)C)cc3n2)CC1` [Compound I-346], in series [1] (setting [7]), the Clp is given as 16.5 mL/min/kg. Besides, in series [1] (non-compartmental analysis), the “T ½” value came out at 0.44 h. The F in series [1] came out at 4.7%. Besides, the “% inhibition” value in series [2] (dose 20 mg/kg) is 60%.
In the same order, the values of `Cc1ccc(C(=O)O)c(N2CCN(C(=O)c3cc4nc(-c5ccc(Cl)c(F)c5)cc(C(C)(C)C)c4o3)C(C)(C)C2)n1` [Compound I-352] are 6.5 mL/min/kg, 5.6 h, 48% and 61%.
In the same order, the values of `CC1(C)CCC(c2cc(C(C)(C)C)c3oc(C(=O)N4CCN(C(=O)CCC(C)(C)C(=O)O)CC4(C)C)cc3n2)CC1` [Compound I-354] are 32 mL/min/kg, 0.57 h, 52% and 60%.
As for `CC(C)(CCC(=O)N1CCN(C(=O)c2cc3nc(-c4ccc(Cl)c(F)c4)cc(C(C)(C)C)c3o2)C(C)(C)C1)C(=O)O` [Compound I-367], the Clp in series [1] (setting [7]) amounted to 28 mL/min/kg. Also, the “T ½” value in series [1] (non-compartmental analysis) was determined as 0.32 h. For the same compound, the F in series [1] was determined as 2.7%. Moreover, the “% inhibition” value in series [2] (dose 20 mg/kg) was determined as 68%.
In the same order, the values of `CC(C)(C)c1cc(-c2ccc(Cl)c(F)c2)nc2cc(C(=O)N3CCN(c4ccn[nH]4)C(=O)C3(C)C)oc12` [Compound I-406] are 3.6 mL/min/kg, 23.2 h, 66% and 21%.
With `Cc1nc(N2CCN(C(=O)c3cc4nc(-c5ccc(Cl)c(F)c5)cc(C(C)(C)C)c4o3)C(C)(C)C2)ccc1C(=O)O` [Compound I-411], the Clp in series [1] (setting [7]) turned out to be 6.5 mL/min/kg. Further, the “T ½” value in series [1] (non-compartmental analysis) is listed as 2.0 h. Moreover, the F in series [1] came out at 70%. Further, the “% inhibition” value in series [2] (dose 8 mg/kg) worked out at 36%.
On to `CC1(C)CCC(c2cc(C(C)(C)C)c3oc(C(=O)N4CCN(c5cccc(C(=O)O)n5)CC4(C)C)cc3n2)CC1` [Compound I-449], for which, in series [1] (setting [7]), the Clp is listed as 5.0 mL/min/kg. In series [1] (non-compartmental analysis), the “T ½” value turned out to be 5.3 h. Also, the F in series [1] was found to be 119%. For the same compound, the “% inhibition” value in series [2] (dose 15 mg/kg) amounted to 22%.
As to `Cc1nc(N2CCN(C(=O)c3cc4nc(C5CCC(C)(C)CC5)cc(C(C)(C)C)c4o3)C(C)(C)C2)ncc1C(=O)O` [Compound I-465], the Clp in series [1] (setting [7]) amounted to 9.2 mL/min/kg. Moreover, the “T ½” value in series [1] (non-compartmental analysis) is 5.1 h. Further, in series [1], the F is 46%. In addition, the “% inhibition” value in series [2] (dose 20 mg/kg) was found to be 6%.
As to `CC(C)(C)c1cc(-c2ccc(Cl)c(F)c2)nc2cc(C(=O)N3CCN(c4cccc(C(=O)O)n4)CC3(C)C)oc12` [Example I-448, 6-[4-[7-tert-butyl-5-(4-chloro-3-fluoro-phenyl)furo[3,2-b]pyridine-2-carbonyl]-3,3-dimethyl-piperazin-1-yl]pyridine-2-carboxylic acid], in series [1], the F was determined as 125%. The clearance in series [1] (plasma, intravenous bolus 0.5 to 1 mg/kg, non-compartmental analysis, read-out: Clp) worked out at 9.3 mL/min/kg. Further, the half-life in series [1] (plasma, non-compartmental analysis, read-out: T ½ (converted)) was 5.2 h. In addition, the “% inhibition” value in series [2] (dose 0.8 mg/kg) amounted to 11%; in series [2] (dose 3 mg/kg), 18%; in series [2] (dose 10 mg/kg) it was 30%; in series [2] (dose 20 mg/kg), 21%. The IC50 in series [3] is 2000 nM; in series [4], 1790 nM; on PAR2 (HT-29 cells) [5], 0.2 nM; on PAR2 (HT-29 cells) [6] it was 0.3 nM.
